Laboratory results from BindingDB's records for doi:10.1021/jm0011169 (Stockholm University, 2001).

target: T1, Dimer of Gag-Pol polyprotein [489-587] (Human immunodeficiency virus 1, UniProt P12497); assay: Protease Inhibition Assay; conditions: pH 5; 30 °C
T1 construct: 489-587
Protocol: A fluorimetric assay was used to determine the effects of the inhibitors on HIV-1 protease. This assay used an internally quenched fluorescent peptide substrate. The measurements were performed in 96-well plates with a Fluoroscan plate reader. Excitation and emission wavelengths were 355 nm and 500 nm, respectively.

Row | Compound | Ki [nM]
1 | C=CCS[C@@H](C(=O)N[C@H]1c2ccccc2C[C@H]1O)[C@H](O)[C@@H](O)[C@@H](SCC=C)C(=O)N[C@H]1c2ccccc2C[C@H]1O [(2R,3R,4R,5R)-3,4-dihydroxy-N,N'-bis[(1S,2R)-2-hydroxy-2,3-dihydro-1H-inden-1-yl]-2,5-bis(prop-2-en-1-ylsulfanyl)hexanediamide] | 16
2 | O=C(N[C@H]1c2ccccc2C[C@H]1O)[C@H](Sc1ccccc1)[C@H](O)[C@@H](O)[C@@H](Sc1ccccc1)C(=O)N[C@H]1c2ccccc2C[C@H]1O [N1,N6-Di[(2R)-hydroxy-(1S)-indanyl]-(2R,3R,4R,5R)-3,4-dihydroxy-2,5-di(phenylsulfanyl)hexanediamide] | 1.8
3 | O=C(N[C@H]1c2ccccc2C[C@H]1O)[C@H](Sc1ccccn1)[C@H](O)[C@@H](O)[C@@H](Sc1ccccn1)C(=O)N[C@H]1c2ccccc2C[C@H]1O [N1,N6-Di[(2R)-hydroxy-(1S)-indanyl]-(2R,3R,4R,5R)-3,4-dihydroxy-2,5-di(2-pyridylsulfanyl)hexanediamide] | 285
4 | O=C(N[C@H]1c2ccccc2C[C@H]1O)[C@H](SCc1ccccc1)[C@H](O)[C@@H](O)[C@@H](SCc1ccccc1)C(=O)N[C@H]1c2ccccc2C[C@H]1O [N1,N6-Di[(2R)-hydroxy-(1S)-indanyl]-(2R,3R,4R,5R)-2,5-di(benzylsulfanyl)-3,4-dihydroxyhexanediamide] | 2.8
5 | O=C(N[C@H]1c2ccccc2C[C@H]1O)[C@H](Sc1ccccc1F)[C@H](O)[C@@H](O)[C@@H](Sc1ccccc1F)C(=O)N[C@H]1c2ccccc2C[C@H]1O [(2R,3R,4R,5R)-2,5-bis[(2-fluorophenyl)sulfanyl]-3,4-dihydroxy-N,N'-bis[(1S,2R)-2-hydroxy-2,3-dihydro-1H-inden-1-yl]hexanediamide] | 2.3
6 | O=C(N[C@H]1c2ccccc2C[C@H]1O)[C@H](SCc1ccccc1F)[C@H](O)[C@@H](O)[C@@H](SCc1ccccc1F)C(=O)N[C@H]1c2ccccc2C[C@H]1O [N1,N6-Di[(2R)-hydroxy-(1S)-indanyl]-(2R,3R,4R,5R)-2,5-di(2-fluorobenzylsulfanyl)-3,4-dihydroxyhexanediamide] | 4.3
